Literature values in patent publication US20190037897A1, “AMORPHOUS COOLER DISPERSION COMPOSITION” (International Flavors & Fragrances Inc., priority 2016, published 2019).

Conditions: compared to menthol (as 100)

Compound | relative cooling strength
CCNC(=O)C1CC(C)CCC1C(C)C (stereo not shown) [WS-3, N-Ethyl-p-menthane-3-carboxamide] | 150
COc1ccc(NC(=O)[C@@H]2C[C@H](C)CC[C@H]2C(C)C)cc1 [WS-12, (1R,2S,5R)-N-(4-Methoxyphenyl)-p-menthanecarboxamide] | 150
CC1CCC(C(C)C)C(O)C1 (stereo not shown) [menthol] | 100
Ethyl 3-(p-menthane-3-carboxamido)acetate [WS-5] | 400
